Source: US20240277713A1 (Kadmon Corporation, LLC, priority 2022, published 2024)
Where a name gives a salt, the structure may show the parent alone.

Legend:
[1] = Solubility; type: physicochemical
Experimental: The tablet film consists of polyvinyl alcohol, polyethylene glycol, talc, titanium dioxide and yellow iron oxide. Each 200 mg tablet is a pale-yellow film-coated oblong tablet debossed with “KDM” on one side and “200” on the other side. Tablets are stored at room temperature, 20° C. to 25° C. (68° F. to 77° F.); excursions permitted from 15° C. and 30° C. (59° F. to 86° F.).

[2] = Toxicokinetics in pregnant Sprague-Dawley rats (Example 1); type: in vivo, rat; conditions: belumosudil 25 mg base/kg/day oral, GD 17
[3] = Toxicokinetics in pregnant New Zealand White rabbits (Example 2); type: in vivo, rabbit; conditions: GD 18
Experimental: The study was conducted in two phases: Phase A was a dose range finding tolerance study with non-pregnant rabbits, and Phase B was the pilot developmental toxicity study.
All fetuses were given the appropriate external examination.

[4] = Toxicokinetic evaluation in pregnant rats (Example 3); type: in vivo, rat
From the text: Animals received in-life and postmorten evaluations.

[5] = Toxicokinetic evaluation in pregnant rabbits (Example 4); type: in vivo, rabbit
Experimental: The dose levels for the treated groups were 50, 125, 225, mg base/kg/day at a dose volume of 10 mL/kg. The control group received the vehicle in the same manner as the treated groups. […] Individual doses were based on the most recent body weights.
Observations of the animals included clinical signs, body weights, food consumption, and anatomical pathology including a uterine examination. […] All fetuses were given an external, visceral, and skeletal examination.

[6] = Toxicokinetic analysis in rat plasma (Example 5); type: in vivo
Experimental: TK animals were dosed for 70 and 14 days for the males and females, respectively. Dosing of TK males and females was initiated simultaneously, continuing to euthanasia. Refrigerated daily aliquots of dosing formulations were brought to room temperature while continuously stirring for at least 30 minutes prior to dosing.

[7] = system: patients with cGVHD; conditions: cited from earlier work
[8] = belumosudil 50 mg base/kg/day oral
[9] = belumosudil 250 mg base/kg/day oral
[10] = GD 6, belumosudil 15 mg base/kg oral
[11] = GD 6, belumosudil 50 mg base/kg oral
[12] = GD 6, belumosudil 150 mg base/kg oral
[13] = GD 17, belumosudil 15 mg base/kg oral
[14] = GD 17, belumosudil 50 mg base/kg oral
[15] = GD 17, belumosudil 150 mg base/kg oral
[16] = GD 6, belumosudil 125 mg base/kg oral
[17] = GD 6, belumosudil 225 mg base/kg oral
[18] = GD 18, belumosudil 50 mg base/kg oral
[19] = GD 18, belumosudil 125 mg base/kg oral
[20] = GD 18, belumosudil 225 mg base/kg oral
[21] = Day 1, belumosudil 50 mg base/kg, F
[22] = Day 1, belumosudil 50 mg base/kg, M
[23] = Day 1, belumosudil 150 mg base/kg, F
[24] = Day 1, belumosudil 150 mg base/kg, M
[25] = Day 1, belumosudil 275 mg base/kg, F
[26] = Day 1, belumosudil 275 mg base/kg, M
[27] = Day 14, belumosudil 50 mg base/kg, F
[28] = Day 14, belumosudil 150 mg base/kg, F
[29] = Day 14, belumosudil 275 mg base/kg, F
[30] = Day 70, belumosudil 50 mg base/kg, M
[31] = Day 70, belumosudil 150 mg base/kg, M
[32] = Day 70, belumosudil 275 mg base/kg, M

CC(C)NC(=O)COc1cccc(-c2nc(Nc3ccc4[nH]ncc4c3)c3ccccc3n2)c1 [Belumosudil mesylate, 2-{3-[4-(1H-indazol-5-ylamino)-2-quinazolinyl]phenoxy}-N-(propan-2-yl) acetamide methanesulfonate (1:1)]
solubility in DMSO [1]: soluble in DMSO
solubility in methanol and DMF [1]: slightly soluble in methanol and DMF
solubility in water [1]: practically insoluble in water

O=C(O)COc1cccc(-c2nc(Nc3ccc4[nH]ncc4c3)c3ccccc3n2)c1 [KD025m2]
maternal AUC0-24 [2]: 1480 ng·h/mL
maternal Cmax [2]: 127 ng/mL
maternal AUC0-24 [3, 8]: 2990 ng·h/mL
maternal Cmax [3, 8]: 1090 ng/mL
maternal AUC0-24 [3, 9]: 19700 ng·h/mL
maternal Cmax [3, 9]: 3080 ng/mL
Mean AUC0-24 in plasma of pregnant rats [4, 10]: 515 ng·h/mL
Mean Cmax in plasma of pregnant rats [4, 10]: 76.2 ng/mL
Mean AUC0-24 in plasma of pregnant rats [4, 11]: 3050 ng·h/mL
Mean Cmax in plasma of pregnant rats [4, 11]: 191 ng/mL
Mean AUC0-24 in plasma of pregnant rats [4, 12]: 10500 ng·h/mL
Mean Cmax in plasma of pregnant rats [4, 12]: 519 ng/mL
Mean AUC0-24 in plasma of pregnant rats [4, 13]: 572 ng·h/mL
Mean Cmax in plasma of pregnant rats [4, 13]: 55.6 ng/mL
Mean AUC0-24 in plasma of pregnant rats [4, 14]: 3580 ng·h/mL
Mean Cmax in plasma of pregnant rats [4, 14]: 350 ng/mL
Mean AUC0-24 in plasma of pregnant rats [4, 15]: 11100 ng·h/mL
Mean Cmax in plasma of pregnant rats [4, 15]: 972 ng/mL
accumulation after multiple dosing of belumosudil ([4]; pregnant rats): No apparent accumulation
Mean AUC0-24 in plasma of pregnant rabbits [5, 11]: 4180 ng·h/mL
Mean Cmax in plasma of pregnant rabbits [5, 11]: 1170 ng/mL
Mean AUC0-24 in plasma of pregnant rabbits [5, 16]: 13600 ng·h/mL
Mean Cmax in plasma of pregnant rabbits [5, 16]: 2180 ng/mL
Mean AUC0-24 in plasma of pregnant rabbits [5, 17]: 42400 ng·h/mL
Mean Cmax in plasma of pregnant rabbits [5, 17]: 3190 ng/mL
Mean AUC0-24 in plasma of pregnant rabbits [5, 18]: 2470 ng·h/mL
Mean Cmax in plasma of pregnant rabbits [5, 18]: 1120 ng/mL
Mean AUC0-24 in plasma of pregnant rabbits [5, 19]: 16700 ng·h/mL
Mean Cmax in plasma of pregnant rabbits [5, 19]: 3610 ng/mL
Mean AUC0-24 in plasma of pregnant rabbits [5, 20]: 41500 ng·h/mL
Mean Cmax in plasma of pregnant rabbits [5, 20]: 4620 ng/mL
accumulation after multiple dosing of belumosudil ([5]; pregnant rabbits): no apparent accumulation
AUC0-24 in rat plasma [6, 21]: 2110 ng·h/mL
Cmax in rat plasma [6, 21]: 135 ng/mL
AUC0-24 in rat plasma [6, 22]: 5440 ng·h/mL
Cmax in rat plasma [6, 22]: 501 ng/mL
AUC0-24 in rat plasma [6, 23]: 6860 ng·h/mL
Cmax in rat plasma [6, 23]: 398 ng/mL
AUC0-24 in rat plasma [6, 24]: 13600 ng·h/mL
Cmax in rat plasma [6, 24]: 686 ng/mL
AUC0-24 in rat plasma [6, 25]: 11500 ng·h/mL
Cmax in rat plasma [6, 25]: 925 ng/mL
AUC0-24 in rat plasma [6, 26]: 21500 ng·h/mL
Cmax in rat plasma [6, 26]: 1680 ng/mL
AR (Accumulation Ratio) AUC0-24 [6, 27]: 0.657
AUC0-24 in rat plasma [6, 27]: 1390 ng·h/mL
Cmax in rat plasma [6, 27]: 125 ng/mL
AR (Accumulation Ratio) AUC0-24 [6, 28]: 1.04
AUC0-24 in rat plasma [6, 28]: 7110 ng·h/mL
Cmax in rat plasma [6, 28]: 523 ng/mL
AR (Accumulation Ratio) AUC0-24 [6, 29]: 1.80
AUC0-24 in rat plasma [6, 29]: 20700 ng·h/mL
Cmax in rat plasma [6, 29]: 1480 ng/mL
AR (Accumulation Ratio) AUC0-24 [6, 30]: 0.750
AUC0-24 in rat plasma [6, 30]: 4080 ng·h/mL
Cmax in rat plasma [6, 30]: 410 ng/mL
AR (Accumulation Ratio) AUC0-24 [6, 31]: 0.701
AUC0-24 in rat plasma [6, 31]: 9520 ng·h/mL
Cmax in rat plasma [6, 31]: 1070 ng/mL
AR (Accumulation Ratio) AUC0-24 [6, 32]: 1.35
AUC0-24 in rat plasma [6, 32]: 28900 ng·h/mL
Cmax in rat plasma [6, 32]: 1900 ng/mL
accumulation after multiple doses of belumosudil ([6]; rats): less than 2 fold

C=CC(=O)N1CCC[C@@H](n2nc(-c3ccc(Oc4ccccc4)cc3)c3c(N)ncnc32)C1 [ibrutinib]
discontinuation rate because of TEAEs [7]: 43%
